Laboratory results from PubChem BioAssay (NCI).
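Five concentrations, 48 hours, 96-well plates. TGI is the concentration that stops growth completely.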

Assays:
Assay in all cases: NCI anticancer screen, dose series, 48 h
MDA-MB-435 = tested on: MDA-MB-435
TK-10 renal = tested on: TK-10 renal
MALME-3M melanoma = tested on: MALME-3M melanoma
EKVX NSCLC = tested on: EKVX NSCLC
NCI-H522 lung = tested on: NCI-H522 lung
OVCAR-8 ovarian = tested on: OVCAR-8 ovarian
A498 renal = tested on: A498 renal
OVCAR-4 ovarian = tested on: OVCAR-4 ovarian
RXF 393 renal = tested on: RXF 393 renal
HOP-92 NSCLC = tested on: HOP-92 NSCLC
IGROV1 ovarian = tested on: IGROV1 ovarian

Cc1cc(C)c2c(c1)CC1(Cc3c(C)ccc(C)c3C1=O)C2=O (stereo not drawn)
TGI (MDA-MB-435): > 100 µM | TGI (TK-10 renal): > 100 µM | TGI (MALME-3M melanoma): > 100 µM | TGI (EKVX NSCLC): > 100 µM | TGI (NCI-H522 lung): > 100 µM | TGI (OVCAR-8 ovarian): > 100 µM | TGI (A498 renal): > 100 µM | TGI (OVCAR-4 ovarian): > 100 µM | TGI (RXF 393 renal): > 100 µM | TGI (HOP-92 NSCLC): > 100 µM | TGI (IGROV1 ovarian): > 100 µM

Cc1ccc(S(=O)(=O)N2C[C@](O)(c3ccccc3)[C@H]2C)cc1
TGI (MDA-MB-435): > 100 µM | TGI (TK-10 renal): > 100 µM | TGI (MALME-3M melanoma): > 100 µM | TGI (EKVX NSCLC): > 100 µM | TGI (NCI-H522 lung): > 100 µM | TGI (OVCAR-8 ovarian): > 100 µM | TGI (A498 renal): > 100 µM | TGI (OVCAR-4 ovarian): > 100 µM | TGI (RXF 393 renal): > 100 µM | TGI (HOP-92 NSCLC): > 100 µM | TGI (IGROV1 ovarian): > 100 µM

Brc1c(C#CCC(c2ccccc2)(c2ccccc2)c2ccccc2)ccc(C#CCC(c2ccccc2)(c2ccccc2)c2ccccc2)c1Br
TGI (MDA-MB-435): > 100 µM | TGI (TK-10 renal): > 100 µM | TGI (MALME-3M melanoma): > 100 µM | TGI (EKVX NSCLC): > 100 µM | TGI (NCI-H522 lung): > 100 µM | TGI (OVCAR-8 ovarian): > 100 µM | TGI (A498 renal): > 100 µM | TGI (OVCAR-4 ovarian): > 100 µM | TGI (RXF 393 renal): > 100 µM | TGI (HOP-92 NSCLC): > 100 µM | TGI (IGROV1 ovarian): > 100 µM

CN(C)CC1COC2Cc3ccccc3C1O2 (stereo not drawn)
TGI (MDA-MB-435): > 100 µM | TGI (TK-10 renal): > 100 µM | TGI (MALME-3M melanoma): > 100 µM | TGI (EKVX NSCLC): > 100 µM | TGI (NCI-H522 lung): > 100 µM | TGI (OVCAR-8 ovarian): > 100 µM | TGI (A498 renal): > 100 µM | TGI (OVCAR-4 ovarian): > 100 µM | TGI (RXF 393 renal): > 100 µM | TGI (HOP-92 NSCLC): > 100 µM | TGI (IGROV1 ovarian): > 100 µM

CC(C)OP(=O)(OC(C)C)/C(C#N)=C/c1ccco1
TGI (MDA-MB-435): > 100 µM | TGI (TK-10 renal): > 100 µM | TGI (MALME-3M melanoma): > 100 µM | TGI (EKVX NSCLC): > 100 µM | TGI (NCI-H522 lung): > 100 µM | TGI (OVCAR-8 ovarian): > 100 µM | TGI (A498 renal): > 100 µM | TGI (OVCAR-4 ovarian): > 100 µM | TGI (RXF 393 renal): > 100 µM | TGI (HOP-92 NSCLC): > 100 µM | TGI (IGROV1 ovarian): > 100 µM

Cc1ccc2c(n1)C(=O)C=CC2=O
TGI (MDA-MB-435): 33 µM | TGI (TK-10 renal): 6.21 µM | TGI (MALME-3M melanoma): 16.8 µM | TGI (EKVX NSCLC): 15 µM | TGI (NCI-H522 lung): 3.51 µM | TGI (OVCAR-8 ovarian): 33.7 µM | TGI (A498 renal): 31.1 µM | TGI (OVCAR-4 ovarian): 12.8 µM | TGI (RXF 393 renal): 13.6 µM | TGI (HOP-92 NSCLC): 13.7 µM | TGI (IGROV1 ovarian): 29.3 µM

Cc1nc2c(nc1C)-c1c(c3c(n1C)C(=O)CCC3)C(=O)C2=O
TGI (MDA-MB-435): 0.353 µM | TGI (TK-10 renal): 4.51 µM | TGI (MALME-3M melanoma): 0.669 µM | TGI (EKVX NSCLC): 2.65 µM | TGI (NCI-H522 lung): 1.6 µM | TGI (OVCAR-8 ovarian): 0.638 µM | TGI (A498 renal): 2.59 µM | TGI (OVCAR-4 ovarian): 0.279 µM | TGI (RXF 393 renal): 0.474 µM | TGI (HOP-92 NSCLC): 2.94 µM | TGI (IGROV1 ovarian): 1.48 µM

Cc1oc(N)c(S(=O)(=O)c2ccc(Cl)cc2)c1C
TGI (MDA-MB-435): > 100 µM | TGI (TK-10 renal): > 100 µM | TGI (MALME-3M melanoma): > 100 µM | TGI (EKVX NSCLC): > 100 µM | TGI (NCI-H522 lung): > 100 µM | TGI (OVCAR-8 ovarian): > 100 µM | TGI (A498 renal): > 100 µM | TGI (OVCAR-4 ovarian): > 100 µM | TGI (RXF 393 renal): > 100 µM | TGI (HOP-92 NSCLC): > 100 µM | TGI (IGROV1 ovarian): > 100 µM
